The values below come from patent US8846698B2, “Pyrrolo[2,3-d]pyrimidine tropomysin-related kinase inhibitors” (Pfizer Limited, priority 2011, dated 2014).

SMILES strings stand for the structures.

What is called IC50 is the concentration that gives 50% inhibition.

In this experiment the target is TRKA (Homo sapiens (Human), UniProt P04629). In words: Isolated TRK enzyme assay (HTRF KinEASE-TK), TRKA. Type of experiment: biochemical. Conditions: read-out: Trka enzyme (IC50). On the technique in general: Time-resolved FRET reads energy transfer from a long-lived donor to a nearby acceptor.
Chain of TRKA (P04629 441-796): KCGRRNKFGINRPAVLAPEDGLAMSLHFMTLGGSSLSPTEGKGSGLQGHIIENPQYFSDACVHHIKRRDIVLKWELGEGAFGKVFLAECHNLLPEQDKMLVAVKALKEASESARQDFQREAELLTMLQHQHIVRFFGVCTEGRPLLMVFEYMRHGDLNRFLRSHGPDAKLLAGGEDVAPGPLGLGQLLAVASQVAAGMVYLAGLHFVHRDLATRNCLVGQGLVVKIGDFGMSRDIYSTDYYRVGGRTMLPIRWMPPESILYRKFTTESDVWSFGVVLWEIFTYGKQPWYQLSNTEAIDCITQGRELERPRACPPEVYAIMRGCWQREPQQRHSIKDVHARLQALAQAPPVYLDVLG
As for `CC(C)n1cc(C(=O)c2cncc(NC(=O)c3csc(C4CCC4)n3)c2)c2cncnc21` [Example 459, 2-Cyclobutyl-thiazole-4-carboxylic acid [5-(7-isopropyl-7H-pyrrolo[2,3-d]pyrimidine-5-carbonyl)-pyridin-3-yl]-amide], the IC50 was found to be 4.06 nM.
As to `CC(C)n1cc(C(=O)c2cncc(NC(=O)c3ccncc3F)c2)c2cncnc21` [Example 460, 3-Fluoro-N-[5-(7-isopropyl-7H-pyrrolo[2,3-d]pyrimidine-5-carbonyl)-pyridin-3-yl]-isonicotinamide], the IC50 was determined as 9800 nM.
With `Cc1nc2ncccn2c1C(=O)Nc1cncc(C(=O)c2cn(C(C)C)c3ncncc23)c1` [Example 461, 2-Methyl-imidazo[1,2-a]pyrimidine-3-carboxylic acid [5-(7-isopropyl-7H-pyrrolo[2,3-d]pyrimidine-5-carbonyl)-pyridin-3-yl]-amide] the figure was 9800 nM; with `Cc1cc(C(=O)Nc2cncc(C(=O)c3cn(C(C)C)c4ncncc34)c2)no1` [Example 462, 5-Methyl-isoxazole-3-carboxylic acid [5-(7-isopropyl-7H-pyrrolo[2,3-d]pyrimidine-5-carbonyl)-pyridin-3-yl]-amide], 1320 nM; with `COc1cc(OC)nc(C(=O)Nc2cncc(C(=O)c3cn(C(C)C)c4ncncc34)c2)n1` [Example 463, 4,6-Dimethoxy-pyrimidine-2-carboxylic acid [5-(7-isopropyl-7H-pyrrolo[2,3-d]pyrimidine-5-carbonyl)-pyridin-3-yl]-amide], 186 nM.
To `Cc1cncc(C(=O)Nc2cncc(C(=O)c3cn(C(C)C)c4ncncc34)c2)n1` [Example 464, 6-Methyl-pyrazine-2-carboxylic acid[5-(7-isopropyl-7H-pyrrolo[2,3-d]pyrimidine-5-carbonyl)-pyridin-3-yl]-amide] belongs 3010 nM.
With `CC(C)n1cc(C(=O)c2cncc(NC(=O)c3cn(C)cn3)c2)c2cncnc21` [Example 465, 1-Methyl-1H-imidazole-4-carboxylic acid [5-(7-isopropyl-7H-pyrrolo[2,3-d]pyrimidine-5-carbonyl)-pyridin-3-yl]-amide] the figure was 2130 nM; with `CC(C)n1cc(C(=O)c2cncc(NC(=O)c3ccc(Cl)cn3)c2)c2cncnc21` [Example 466, 5-Chloro-pyridine-2-carboxylic acid[5-(7-isopropyl-7H-pyrrolo[2,3-d]pyrimidine-5-carbonyl)-pyridin-3-yl]-amide], 400 nM.
`CC(C)n1cc(C(=O)c2cncc(NC(=O)c3ccc4cccnc4n3)c2)c2cncnc21` [Example 467, 1,8-Naphthyridine-2-carboxylic acid[5-(7-isopropyl-7H-pyrrolo[2,3-d]pyrimidine-5-carbonyl)-pyridin-3-yl]-amide]: the IC50 was found to be 538 nM.
As to `CC(C)n1cc(C(=O)c2cncc(NC(=O)c3nccn3C)c2)c2cncnc21` [Example 468, 1-Methyl-1H-imidazole-2-carboxylic acid [5-(7-isopropyl-7H-pyrrolo[2,3-d]pyrimidine-5-carbonyl)-pyridin-3-yl]-amide], the IC50 is 5100 nM.
To `COCc1cc(C(=O)Nc2cncc(C(=O)c3cn(C(C)C)c4ncncc34)c2)no1` [Example 469, 5-Methoxymethyl-isoxazole-3-carboxylic acid [5-(7-isopropyl-7H-pyrrolo[2,3-d]pyrimidine-5-carbonyl)-pyridin-3-yl]-amide] belongs 523 nM; to `CC(C)n1cc(C(=O)c2cncc(NC(=O)c3nncc4ccccc34)c2)c2cncnc21` [Example 470, Phthalazine-1-carboxylic acid [5-(7-isopropyl-7H-pyrrolo[2,3-d]pyrimidine-5-carbonyl)-pyridin-3-yl]-amide], 166 nM.
For the compound `CC(C)n1cc(C(=O)c2cncc(NC(=O)c3cnn4c3CCC4)c2)c2cncnc21` [Example 471, 5,6-Dihydro-4H-pyrrolo[1,2-b]pyrazole-3-carboxylic acid [5-(7-isopropyl-7H-pyrrolo[2,3-d]pyrimidine-5-carbonyl)-pyridin-3-yl]-amide], the IC50 is 751 nM.
For the compound `CC(C)n1cc(C(=O)c2cncc(NC(=O)c3ncncc3Br)c2)c2cncnc21` [Example 472, 5-Bromo-pyrimidine-4-carboxylic acid [5-(7-isopropyl-7H-pyrrolo[2,3-d]pyrimidine-5-carbonyl)-pyridin-3-yl]-amide], the IC50 was found to be 1720 nM.
In the case of `CC(C)n1cc(C(=O)c2cncc(NC(=O)c3ccc(C#N)nc3)c2)c2cncnc21` [Example 473, 6-Cyano-N-[5-(7-isopropyl-7H-pyrrolo[2,3-d]pyrimidine-5-carbonyl)-pyridin-3-yl]-nicotinamide], the IC50 was determined as 7280 nM.
In the case of `CC(C)n1cc(C(=O)c2cncc(NC(=O)c3cnn4cccnc34)c2)c2cncnc21` [Example 474, Pyrazolo[1,5-a]pyrimidine-3-carboxylic acid [5-(7-isopropyl-7H-pyrrolo[2,3-d]pyrimidine-5-carbonyl)-pyridin-3-yl]-amide], the IC50 was 4420 nM.
In the case of `Cc1n[nH]c2ncc(C(=O)Nc3cncc(C(=O)c4cn(C(C)C)c5ncncc45)c3)cc12` [Example 475, 3-Methyl-1H-pyrazolo[3,4-b]pyridine-5-carboxylic acid [5-(7-isopropyl-7H-pyrrolo[2,3-d]pyrimidine-5-carbonyl)-pyridin-3-yl]-amide], the IC50 was 643 nM.
For the compound `Cc1cccc2cc(C(=O)Nc3cncc(C(=O)c4cn(C(C)C)c5ncncc45)c3)nn12` [Example 476, 7-Methyl-pyrazolo[1,5-a]pyridine-2-carboxylic acid [5-(7-isopropyl-7H-pyrrolo[2,3-d]pyrimidine-5-carbonyl)-pyridin-3-yl]-amide], the IC50 is 65 nM.
To `Cc1ocnc1C(=O)Nc1cncc(C(=O)c2cn(C(C)C)c3ncncc23)c1` [Example 477, 5-Methyl-oxazole-4-carboxylic acid [5-(7-isopropyl-7H-pyrrolo[2,3-d]pyrimidine-5-carbonyl)-pyridin-3-yl]-amide] belongs 3030 nM; to `CC(C)n1cc(C(=O)c2cncc(NC(=O)c3cc4cscc4cn3)c2)c2cncnc21` [Example 478, Thieno[3,4-c]pyridine-6-carboxylic acid [5-(7-isopropyl-7H-pyrrolo[2,3-d]pyrimidine-5-carbonyl)-pyridin-3-yl]-amide], 587 nM.
With `Cc1cc(C(=O)Nc2cncc(C(=O)c3cn(C(C)C)c4ncncc34)c2)nc(C)n1` [Example 479, 2,6-Dimethyl-pyrimidine-4-carboxylic acid [5-(7-isopropyl-7H-pyrrolo[2,3-d]pyrimidine-5-carbonyl)-pyridin-3-yl]-amide], the IC50 was found to be 2160 nM.
As for `CC(C)n1cc(C(=O)c2cncc(NC(=O)c3cc(C#N)ccn3)c2)c2cncnc21` [Example 480, 4-Cyano-pyridine-2-carboxylic acid [5-(7-isopropyl-7H-pyrrolo[2,3-d]pyrimidine-5-carbonyl)-pyridin-3-yl]-amide], the IC50 was 531 nM.
For the compound `COCc1cc(C(=O)Nc2cncc(C(=O)c3cn(C(C)C)c4ncncc34)c2)nn1C` [Example 481, 5-Methoxymethyl-1-methyl-1H-pyrazole-3-carboxylic acid [5-(7-isopropyl-7H-pyrrolo[2,3-d]pyrimidine-5-carbonyl)-pyridin-3-yl]-amide], the IC50 was determined as 313 nM.
`CC(C)n1cc(C(=O)c2cncc(NC(=O)c3nc(Cl)c(Cl)[nH]3)c2)c2cncnc21` [Example 482, 4,5-Dichloro-1H-imidazole-2-carboxylic acid [5-(7-isopropyl-7H-pyrrolo[2,3-d]pyrimidine-5-carbonyl)-pyridin-3-yl]-amide]: the IC50 stood at 6860 nM.
`COc1cc(C(=O)Nc2cncc(C(=O)c3cn(C(C)C)c4ncncc34)c2)nc2c(C)nccc12` [Example 483, 4-Methoxy-8-methyl-1,7-naphthyridine-2-carboxylic acid [5-(7-isopropyl-7H-pyrrolo[2,3-d]pyrimidine-5-carbonyl)-pyridin-3-yl]-amide]: the IC50 is 118 nM.
For `CCc1nc(C)c(C(=O)Nc2cncc(C(=O)c3cn(C(C)C)c4ncncc34)c2)o1` [Example 484, 2-Ethyl-4-methyl-oxazole-5-carboxylic acid [5-(7-isopropyl-7H-pyrrolo[2,3-d]pyrimidine-5-carbonyl)-pyridin-3-yl]-amide], the IC50 came out at 192 nM.
On to `COc1cncc(C(=O)Nc2cncc(C(=O)c3cn(C(C)C)c4ncncc34)c2)c1` [Example 485, N-[5-(7-Isopropyl-7H-pyrrolo[2,3-d]pyrimidine-5-carbonyl)-pyridin-3-yl]-5-methoxy-nicotinamide], for which the IC50 was found to be 20 nM.
`CC(C)n1cc(C(=O)c2cncc(NC(=O)c3cnc4[nH]ncc4c3)c2)c2cncnc21` [Example 486, 1H-Pyrazolo[3,4-b]pyridine-5-carboxylic acid [5-(7-isopropyl-7H-pyrrolo[2,3-d]pyrimidine-5-carbonyl)-pyridin-3-yl]-amide]: the IC50 turned out to be 805 nM.
On to `CC(C)n1cc(C(=O)c2cncc(NC(=O)c3cnc4[nH]cnc4c3)c2)c2cncnc21` [Example 487, 3H-Imidazo[4,5-b]pyridine-6-carboxylic acid [5-(7-isopropyl-7H-pyrrolo[2,3-d]pyrimidine-5-carbonyl)-pyridin-3-yl]-amide], for which the IC50 was 9800 nM.
To `COc1nccn2cc(C(=O)Nc3cncc(C(=O)c4cn(C(C)C)c5ncncc45)c3)nc12` [Example 488, 8-Methoxy-imidazo[1,2-a]pyrazine-2-carboxylic acid [5-(7-isopropyl-7H-pyrrolo[2,3-d]pyrimidine-5-carbonyl)-pyridin-3-yl]-amide] belongs 64.6 nM; to `CC(C)n1cc(C(=O)c2cncc(NC(=O)c3ccncc3)c2)c2cncnc21` [Example 489, N-[5-(7-Isopropyl-7H-pyrrolo[2,3-d]pyrimidine-5-carbonyl)-pyridin-3-yl]-isonicotinamide], 9800 nM.
Consider `Cc1cccnc1C(=O)Nc1cncc(C(=O)c2cn(C(C)C)c3ncncc23)c1` [Example 490, 3-Methyl-pyridine-2-carboxylic acid[5-(7-isopropyl-7H-pyrrolo[2,3-d]pyrimidine-5-carbonyl)-pyridin-3-yl]-amide], for which the IC50 was 9800 nM.
